Patent publication US6949522B2, “β-2′- or 3′-halonucleosides” (Pharmasset, Inc., priority 2001, dated 2005)
Like-named read-outs stand apart in the source and are kept apart here.

Tests used:
in vitro [1] = settings: human
Description: (§1) After a three day-incubation for HepG2, or 5 days for human PBM cells, cell viability and mitochondrial activity were measured in a colorimetric assay using the MTS- or MTT dye method (Promega, Madison, Wis.).

in vitro [2] = settings: human; remark: listed apart in the source
Description: as §1

HIV-1xxBRU = test: Antiviral activity in human PBM cells, HIV-1xxBRU; format: cell-based; settings: read-out: xxBRU (EC90)
Description: (§2) Human peripheral blood mononuclear (PBM) cells (obtained from Atlanta Red Cross) were isolated by Ficoll-Hypaque discontinuous gradient centrifugation from healthy seronegative donors. Cells were stimulated with phytohemagglutinin A (Difco, Sparks, Md.) for 2-3 days prior to use. HIV-1LAI obtained from the Centers for Disease Control and Prevention (Atlanta, Ga.) was used as the standard reference virus for the antiviral assays. The molecular infetious clones HIV-1xxBru and HIV-1M184Vpin were obtained from Dr. John Mellors (University of Pittsburgh). Infections were done in bulk for one hour, either with 100 TCID50/1×10^7 cells for a flask (T25) assay or with 200 TCID50/6×10^5 cells/well for a 24 well plate assay. Cells were added to a plate or flask containing a ten-fold serial dilution of the test compound. Assay medium was RPMI-1640 supplemented with heat inactivated 16% fetal bovine serum, 1.6 mM L-glutamine, 80 IU/ml penicillin, 80 μg/ml streptomycin, 0.0008% DEAE-Dextran, 0.045% sodium bicarbonate, and 26 IU/ml recombinant interleukin-2 (Chiron Corp, Emeryville, Calif.). […] Untreated and uninfected PBM cells were grown in parallel at equivalent cell concentrations as controls. The cell cultures were maintained in a humidified 5% CO2-air at 37° C. for 5 days and supernatants were collected for reverse transcriptase (RT) activity.
Supernatants were centrifuged at 12,000 rpm for 2 hours to pellet the virus. The pellet was solubilized with vortexing in 100 μl virus solubilization buffer (VSB) containing 0.5% Triton X-100, 0.8 M NaCl, 0.5 mM phenylmethylsulfonyl fluoride, 20% glycerol, and 0.05 M Tris, pH 7.8. Ten μL of each sample were added to 75 μL RT reaction mixture (0.06 M Tris, pH 7.8, 0.012 M MgCl2, 0.006 M dithiothreitol, 0.006 mg/ml poly (rA)n, oligo (dT)12-18, 96 μg/ml dATP, and 1 μM of 0.08 mCi/ml ^3H-thymidine triphosphate (Moravek Biochemicals, Brea, Calif.) and incubated at 37° C. for 2 hours. The reaction was stopped by the addition of 100 μL 10% trichloroacetic acid containing 0.05% sodium pyrophosphate. The acid insoluble product was harvested onto filter paper using a Packard Harvester (Meriden, Conn.), and the RT activity was read on a Packard Direct Beta Counter (Meriden, Conn.). The RT results were expressed in counts per minute (CPM) per milliliter. […]

HIV-1M184V = test: Antiviral activity against lamivudine-resistant (HIV-1M184V) mutant strain in human PBM cells; format: cell-based; settings: for EC90: read-out: M184V (EC90)
Description: as §2
Supernatants were centrifuged at 12,000 rpm for 2 hours to pellet the virus. The pellet was solubilized with vortexing in 100 μl virus solubilization buffer (VSB) containing 0.5% Triton X-100, 0.8 M NaCl, 0.5 mM phenylmethylsulfonyl fluoride, 20% glycerol, and 0.05 M Tris, pH 7.8. Ten μL of each sample were added to 75 μL RT reaction mixture (0.06 M Tris, pH 7.8, 0.012 M MgCl2, 0.006 M dithiothreitol, 0.006 mg/ml poly (rA)n, oligo (dT)12-18, 96 μg/ml dATP, and 1 μM of 0.08 mCi/ml ^3H-thymidine triphosphate (Moravek Biochemicals, Brea, Calif.) and incubated at 37° C. for 2 hours. The reaction was stopped by the addition of 100 μL 10% trichloroacetic acid containing 0.05% sodium pyrophosphate. The acid insoluble product was harvested onto filter paper using a Packard Harvester (Meriden, Conn.), and the RT activity was read on a Packard Direct Beta Counter (Meriden, Conn.). The RT results were expressed in counts per minute (CPM) per milliliter.
A single mutation at residue 184 (M184V) in the catalytic domain of HIV-1 RT bring about a high-level of resistance to 3TC, causing the 50% inhibitory concentration of 3TC to be increased at least 1,000-fold (Schinazi, R. F.; Lloyd, Jr. R. M.; Nguyen, M. -H.; Cannon, D. L.; McMillan, A.; Ilksoy, N.; Chu, C. K.; Liotta, D. C.; Bazni, H. Z.; Mellors, J. W. Characterizatin of human immunodeficiency viruses resistant to oxthiolane-cytosine nucleosides. Antimicrob Agents Chemother. 1993, 37, 875-881; Tisdale, M.; Kemp, S. D.; Parry, N. R.; Larder, B. A. Rapid in vitro selection of human immunodeficiency virus type 1 resistant to 3′-thiacytidine inhibitors due to a mutation in the YMDD region of reverse transcnptase. Proc. Natl. Acad. Sci. USA 1993, 90, 5653-5656), contributing to the failure of anti-AIDS combination therapy. […] K. Synthesis and anti-HIV and anti-HBV activities of 2′-fluoro-2′,3′-unsaturated L-nucleosides.

human PBM cells [3] = test: Toxicity assay (MTS/MTT dye), human PBM cells; settings: read-out: Cytotoxicity PBM IC50; human PBM cells, 5 days incubation
Description: as §1

human PBM cells [4] = test: in vitro; format: cell-based
Description: The compounds were evaluated for their potential toxic effects on uninfected PHA-stimulated human PBM cells, in CEM (T-lymphoblastoid cell line obtained from American Type Culture Collection, Rockville, Md.) and Vero (African green monkey kidney) cells. PBM cells were obtained from whole blood of healthy seronegative donors (HIV-1 and hepatitis B virus) by single-step Ficoll-Hypaque discontinous gradient centrifugation. […] All of the cells were plated in 96-well cell culture plates containing ten-fold serial dilutions of the test drug. […] At the end of incubation, MTT tetrazolium dye solution (Cell titer 96®, Promega, Madison, Wis.) was added to each well and incubated overnight. The reaction was stopped with stop solubilization solution (Promega, Madison, Wis.). The plates were incubated for 5 hours to ensure that the formazan crystals were dissolved. The plates were read at a wavelength of 570 nm using an ELISA plate reader (Bio-tek instruments, Inc., Winooski, Vt., Model # EL 312e). […] Bookmark not defined.

[5] = tested on: Vero (African green monkey kidney) cells; test: in vitro; format: cell-based
Description: The compounds were evaluated for their potential toxic effects on uninfected PHA-stimulated human PBM cells, in CEM (T-lymphoblastoid cell line obtained from American Type Culture Collection, Rockville, Md.) and Vero (African green monkey kidney) cells. PBM cells were obtained from whole blood of healthy seronegative donors (HIV-1 and hepatitis B virus) by single-step Ficoll-Hypaque discontinous gradient centrifugation. Log phase Vero, CEM and PHA-stimulated human PBM cells were seeded at a density of 5×10^3, 2.5×10^3 and 5×10^4 cells/well respectively. All of the cells were plated in 96-well cell culture plates containing ten-fold serial dilutions of the test drug. The cultures were incubated for 3, 4 and 5 days for Vero, CEM, and PBM cells, respectively in a humidified 5% CO2-air at 37° C. At the end of incubation, MTT tetrazolium dye solution (Cell titer 96®, Promega, Madison, Wis.) was added to each well and incubated overnight. The reaction was stopped with stop solubilization solution (Promega, Madison, Wis.). The plates were incubated for 5 hours to ensure that the formazan crystals were dissolved. The plates were read at a wavelength of 570 nm using an ELISA plate reader (Bio-tek instruments, Inc., Winooski, Vt., Model # EL 312e). […] Bookmark not defined.

[6] = Human immunodeficiency virus 1, PBMC

Row | Structure (SMILES) | IC50 at 5 days (in vitro [1]) [µM] | IC50 at 3 days (in vitro [2]) [µM] | EC90 (HIV-1xxBRU; [6]) [µM] | EC90 (HIV-1M184V; [6]) [µM] | FI, fold increase (EC90 HIV-1M184V/EC90 HIV-1xxBRU) (HIV-1M184V; human PBM cells) | IC50 (human PBM cells [3]) [µM] | IC50 (human PBM cells [4]) [µM] | IC50 [5] [µM] | EC90 (HIV-1xxBRU; human PBM cells) [µM] | EC90 (HIV-1M184V; human PBM cells) [µM]
1 | Cc1cn([C@H]2C[C@H](N=[N+]=[N-])[C@@H](CO)O2)c(=O)[nH]c1=O [AZT, 3′-azido-3′-deoxythymidine, reference compound] | > 100 | > 100 | 0.01 | 0.003 |  |  |  |  |  | 
2 | Nc1ccn([C@@H]2CS[C@H](CO)O2)c(=O)n1 [Compound 3TC, (−)-β-2′,3′-dideoxy-3′-thiacytidine, reference compound] | > 100 | > 100 | 0.08 | 535 | 6,688 |  |  |  |  | 
3 | Nc1ccn([C@@H]2C=C(F)[C@H](CO)O2)c(=O)n1 [Compound 10, 1-(2,3-Dideoxy-3-fluoro-β-L-glycero-pent-2-eno-furanosyl)cytosine] | > 100 | > 100 |  |  |  |  |  |  |  | 
4 | Nc1ccn([C@@H]2C=C(F)[C@H](CO)O2)c(=O)n1 [Compound 23, 1-(2,3-Didcoxy-3-fluoro-β-L-glycero-pent-2-eno-furanosyl)cytosine] |  |  |  |  |  | 87 |  |  |  | 
5 | Nc1ccn([C@@H]2S[C@H](CO)C=C2F)c(=O)n1 [Compound D-17, (−)-1-[(1S,4R)-2,3-dideoxy-2,3-didehydro-2-fluoro4-thio-β-D-ribofuranosyl]-cytosine] |  |  |  |  | 25 | > 100 | > 100 | > 100 | 5 | ~125
6 | Nc1nc(=O)n([C@@H]2S[C@H](CO)C=C2F)cc1F [Compound D-18, (−)-1-[(1S,4R)-2,3-dideoxy-2,3-didehydro-2-fluoro-4-thio-β-D-ribofuranosyl]-5-fluorocytosine] |  |  |  |  |  | > 100 | > 100 | > 100 |  | 
7 | Nc1ccn([C@H]2S[C@@H](CO)C=C2F)c(=O)n1 [Compound L-17, (+)-1-[(1S,4R)-2,3-dideoxy-2,3-didehydro-2-fluoro-4-thio-β-L-ribofuranosyl]-cytosine] |  |  |  |  | >100 | > 100 | > 100 | > 100 | 1.4 | > 100
8 | Nc1nc(=O)n([C@H]2S[C@@H](CO)C=C2F)cc1F [Compound L-18, (+)-1-[(1S,4R)-2,3-dideoxy-2,3-didehydro-2-fluoro-4-thio-β-L-ribofuranosyl]-5-fluoro-cytosine] |  |  |  |  |  | > 100 | > 100 | > 100 |  | 
